“And” between values parts separate entries of the source, which are not always exact repeats. Equal values may be shown once. The source made the active and inactive calls.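 The calls were made as follows: active = compounds giving half or more protection of infected cells from virus-caused growth loss, again on retest; inactive = the rest.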
Tested on: CEM cells HIV-1 protection, formazan growth assay
Assay: NCI AIDS Antiviral Assay
Conditions: for IC50: measured here: growth of uninfected CEM cells
How it was run: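 Soluble formazan readout of cell growth; CEM cells ± HIV-1; 5 drug concs. ≥50% protection → retest; ≥50% again = moderately active; reproducible 100% = confirmed active.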

COc1ccccc1NC(=O)/C(=C\N1C(=O)/C(=C/c2cc(OC)c(OC)c(OC)c2)SC1=S)C(C)=O
EC50: > 100 µM | IC50: 12.9 µM

C=CCn1c(-c2ccc(-c3cs/c(=N\N=O)n3CC=C)cc2)cs/c1=N\N=O
EC50: > 100 µM | IC50: > 100 µM

O=[N+]([O-])c1cc(F)ccc1Sc1ccccc1
EC50: > 200 µM | IC50: 95.5 µM

CCN(CC)CCOc1ccc(N2C(=O)c3cccc4cc([N+](=O)[O-])cc(c34)C2=O)cc1
EC50: > 200 µM | IC50: 2.45 µM

COc1ccc(-c2c(N)n(-c3cccc(C(=O)O)c3)c(=O)c3cc([N+](=O)[O-])ccc23)cc1
EC50: > 200 µM | IC50: 129 µM

NCCN.[O-][Cl+3]([O-])([O-])[O-].[Pd+2].c1ccc(-c2ccccn2)nc1
EC50: > 200 µM | IC50: 30.2 µM

Cc1ccc(NC(=O)NC23CC4CC(CC(F)(C4)C2)C3)cc1
EC50: > 61.7 µM | IC50: > 61.7 µM

O=C1OC(C2Cc3cc4c(cc3C2=O)CCC4)c2ccccc21 (stereo not drawn)
EC50: > 200 µM | IC50: 33.9 µM

CCOC(=O)c1c(C)cc(=O)n2c1[nH]c1ccccc12
EC50: > 200 µM | IC50: 151 µM

CCCCSc1cc(Cc2cc(C)ccc2O)c(O)c(Cc2cc(C)ccc2O)c1
EC50: > 200 µM | IC50: 10 µM

CC(C)(C)C1=CC(=C(c2ccccc2)c2ccccc2)C=C(C(C)(C)C)C1=O
EC50: > 47.9 µM | IC50: > 47.9 µM

NC(=O)ON=C1CCN(Cc2ccccc2)CC1
EC50: > 200 µM | IC50: > 200 µM

Nc1ccc(N=Nc2ccc(-c3ccc(N=Nc4c(S(=O)(=O)O)cc5cc(S(=O)(=O)O)c(N=Nc6cccc([N+](=O)[O-])c6)c(N)c5c4O)cc3)cc2)c2cc(S(=O)(=O)O)ccc12
outcome: active

CCCCCCCCCCCCCCCC=C(c1cc(Br)c(O)c(C(=O)O)c1)c1cc(Br)c(O)c(C(=O)O)c1
EC50: > 112 µM | IC50: 53.7 µM

NC1=CN(Cc2ccccc2)C2=N/C(=C\c3ccco3)C(=O)N12
EC50: > 200 µM | IC50: 191 µM

N/C(=N/N=C/C1CCCCC1)NO
outcome: inactive

COC(=O)c1c(C#N)[nH]c(-c2ccsc2)c1C(=O)OC
EC50: > 200 µM | IC50: 52.5 µM

CC(C)c1nc2cc(C(F)(F)F)ccc2[nH]c1=O
EC50: > 200 µM | IC50: 120 µM

Nc1cccc(C(CC(=O)O)CC(=O)O)c1
EC50: > 200 µM | IC50: > 200 µM

N#CC(N)c1ccc(OCCCCCCCCCCOc2ccc(C(N)C#N)cc2)cc1 (stereo not drawn)
EC50: > 200 µM | IC50: 115 µM

CN=S(=O)(c1ccccc1)c1ccccc1
EC50: 56.2 µM | IC50: > 200 µM

COc1ccc(-n2cc3c(c2)C(=O)OC3=O)cc1OC
outcome: inactive

CCCCC(/C=N/Nc1ccc([N+](=O)[O-])cn1)CC (stereo not drawn)
EC50: > 200 µM | IC50: > 200 µM

O=C(Nc1ccccc1C(=O)NCCCO)/C(=C/c1ccccc1O)NC(=O)c1ccccc1
EC50: > 200 µM | IC50: > 200 µM

COc1cccc(Nc2nc(NS(=O)(=O)c3cc(C)c(Cl)cc3S)n[nH]2)c1
EC50: > 200 µM | IC50: 158 µM

CCN(CC)c1ccc(N=Nc2ccc(-c3nc4cccnc4s3)cc2)cc1
EC50: > 5.13 µM | IC50: > 5.13 µM

O=C1c2c(O)ccc(O)c2C(=O)c2c(NCCCO)ccc(NCCCO)c21
EC50: 13.5 µM | IC50: 18.6 µM

COc1ccc(-c2cc(-c3ccccc3)c3ccccc3n2)c(OC)c1OC
EC50: > 200 µM | IC50: > 200 µM

NN1C(=O)C(CCO)S/C1=N/N=C1/SC(CCO)C(=O)N1N (stereo not drawn)
EC50: > 74.1 µM | IC50: > 74.1 µM

Cc1cn([C@H]2CS[C@@H](CO)CO2)c(=O)[nH]c1=O
outcome: inactive

CCCCCCCCCCCCn1[se]c2ccccc2c1=O
EC50: 5.01 µM | IC50: 5.5 µM

Cc1[nH]nc2c1NC(=O)OC(C)C2 (stereo not drawn)
EC50: 132 µM | IC50: 490 µM

N#C/C(=C\c1ccccc1)c1cccc(F)c1
EC50: > 200 µM | IC50: 46.8 µM

Nc1ncc(C2[C@H](CNC(=O)c3cc(Br)c[nH]3)C(CNC(=O)c3cc(Br)c[nH]3)[C@@H]2c2cnc(N)[nH]2)[nH]1 (stereo partly drawn)
outcome: active

CC(C)CCCCCCCCCCCCC(=O)NCC(=O)NC1C(O)C(O)C(Nc2ncnc3nc[nH]c23)OC1C(O)CO (stereo not drawn)
EC50: > 0.417 µM | IC50: 0.00224 µM

CCOc1csc([C@H]2CCC3[C@@H]4CC=C5C[C@@H](O)CC[C@]5(C)C4CC[C@@]32C)n1 (stereo partly drawn)
EC50: > 3.39 µM | IC50: > 3.39 µM

COc1c2occc2c(N=Cc2ccc([N+](=O)[O-])cc2)c2ccc(=O)oc12
EC50: > 34.7 µM | IC50: > 34.7 µM

CC(C)C(/C=C/c1ccccc1)=N\NC(=O)N/N=C(/C=C/c1ccccc1)C(C)C
EC50: > 6.76 µM | IC50: > 6.76 µM

CCOP(=O)(OCC)/C(C#N)=C/c1cnc(C)[nH]1
EC50: > 200 µM | IC50: > 200 µM

Nc1ccc(/C=C/c2ccnc3ccccc23)c(N)c1
EC50: 0.0631 µM | IC50: 79.4 µM

O=[N+]([O-])c1ccc(C=NC23CC4CC(CC(C4)C2)C3)cc1
outcome: inactive

CCOC(=O)c1c(N)sc2c1CCCC2
EC50: > 200 µM | IC50: 56.2 µM

CC[C@@H]1CC[C@@H]2[C@H](CC[C@]3(C)[C@@H](OC(C)=O)CC[C@@H]23)[C@H]1C(=O)OC
EC50: > 200 µM | IC50: 24.5 µM

O=C(O)c1cc(O)cc(O)c1N=Nc1ccc(/C=C/c2ccc(N=Nc3c(O)cc(O)cc3C(=O)O)cc2)cc1
EC50: 70.8 µM and 25.1 µM | IC50: 132 µM and > 100 µM

O=C(O)CCSC(=O)Nc1cccc([N+](=O)[O-])c1
outcome: inactive

C#CCOC(=O)C(=[N+]=[N-])C(=O)CC(C)C
EC50: > 200 µM | IC50: > 200 µM

CCOc1ccc(/C=C2/C(=O)N=C(N)N=C2N)cc1OCC
outcome: inactive

CCC[CH2][Ge]([CH2]CCC)([CH2]CCC)[O]C(=O)C(OC)c1ccccc1 (stereo not drawn)
EC50: > 151 µM | IC50: 7.41 µM

Cc1coc2c1[C@@H](O)[C@]1(C)[C@@H](C)CC[C@H](O)[C@]1(O)C2
EC50: > 200 µM | IC50: > 200 µM

COC(=O)C1=C2Nc3ccccc3C23CCN2C(=O)C[C@H](C1)[C@@H]23 (stereo partly drawn)
outcome: inactive

COc1cc(C)c2c(c1)CN1CN2Cc2cc(OC)cc(C)c21
outcome: inactive

Cc1csc(-n2nc(C)cc2C)n1
EC50: > 200 µM | IC50: > 200 µM

S=C1C=C(c2ccccc2)Sc2ccccc2N1
EC50: > 200 µM | IC50: 60.3 µM

COC1C(C)OC(OC2CC(C)(O)C(C(=O)O)c3cc4c(c(O)c32)C(=O)c2c(O)cc3c(c2C4=O)OC2OC3(C)C(O)C(N(C)C)C2O)C(OC)C1(C)OC (stereo not drawn)
outcome: inactive

Nc1ncnc(N)c1N=O
EC50: > 200 µM | IC50: 5.89 µM and 1.62 µM

ClC1c2ccccc2C2(c3ccccc3)OOC1(c1ccccc1)O2 (stereo not drawn)
outcome: inactive

CC/C=C\C/C=C\C/C=C\CCCCCCCC(=O)OCC(COC1OC(CS(=O)(=O)O)C(O)C(O)C1O)OC(=O)CCCCCCCCCCCCCCC (stereo not drawn)
EC50: > 10 µM | IC50: 5.62 µM

CNc1ccc(S(=O)Nc2ccccc2)cc1 (stereo not drawn)
EC50: > 200 µM | IC50: 93.3 µM

COc1ccc(C)cc1S(=O)(=O)c1c(Cl)cccc1[N+](=O)[O-]
EC50: > 200 µM | IC50: > 200 µM

COc1cc2c(cc1OC)C1Cc3ccccc3CCN1CC2 (stereo not drawn)
EC50: > 200 µM | IC50: 126 µM

Cc1c(O)c(OC2OC(CO)C(O)C(O)C2O)cc2c1CC[C@@H]1C2(C)C(=O)C[C@]2(C)[C@@H]([C@@](C)(O)C3CCC(C)(C)O3)[C@H](O)C[C@@]12C (stereo partly drawn)
EC50: > 200 µM | IC50: > 200 µM

CCCNC(=O)CNC(=O)c1ccccc1SC(=O)CCCC[n+]1ccccc1
EC50: 8.32 µM | IC50: 112 µM

O=C1CC[C@@]23CC(=O)O[C@@H]2CCCC3C1 (stereo partly drawn)
outcome: inactive

COc1ccc(N=Cc2c(O)ccc3c2oc2cc(Cl)c(O)c(Cl)c23)cc1
EC50: > 200 µM | IC50: 2.95 µM

CCCCCCCCCCCc1cc(=O)c2c(O)cccc2o1
EC50: > 14.8 µM | IC50: > 14.8 µM

CC(=O)Nc1ccc(/C=C(\C#N)c2ccccc2)cc1
EC50: > 200 µM | IC50: > 200 µM

COc1ccc2c(O)c(C)c(=O)n(C)c2c1
EC50: > 200 µM | IC50: > 200 µM

[Cu].c1ccc2c3[n-]c(c2c1)/N=c1\[n-]/c(c2ccccc12)=N\c1[n-]c(c2ccccc12)/N=c1\[n-]/c(c2ccccc12)=N\3
EC50: > 200 µM | IC50: 51.3 µM

CSc1c(C#N)c2n(c3ccccc3[n+]2C)c2ncccc12
EC50: > 200 µM | IC50: 3.31 µM

N#Cc1nc(N)c(C#N)[nH]1
outcome: inactive

CC(=O)/C(=C/c1ccccc1[N+](=O)[O-])C(=O)c1ccccc1
EC50: > 24.5 µM | IC50: 2.09 µM

NC(N)=NS(=O)(=O)c1ccc(NC(=O)c2cccc3c(=O)c4ccccc4[nH]c23)cc1
outcome: inactive

C[N+](C)(Cc1ccc(NC(=O)CCCC(=O)ON2C(=O)CCC2=O)cc1)c1ccccc1
EC50: > 200 µM | IC50: 135 µM

N#Cc1c(NC(=S)Nc2ccccc2)sc2c1CCCC2
EC50: > 200 µM | IC50: > 200 µM

COC(=O)C(Cc1c[nH]c2ccccc12)NP(=O)(O)OCC1OC(n2cc(F)c(=O)[nH]c2=O)CC1O (stereo not drawn)
EC50: > 200 µM | IC50: > 200 µM

COc1cc2c(cc1OC)CC1c3cc(OC)c(OC)cc3CCN1CC2 (stereo not drawn)
EC50: > 200 µM | IC50: 30.2 µM

CCCCCCOP(OCCCCCC)OCCCCCC
outcome: inactive

CC(C)C1=CC23CCC4C(C)(C(=O)O)CCCC4(C)C2CC1C1C(=O)N(c2ccccc2)C(=O)C13 (stereo not drawn)
EC50: > 52.5 µM | IC50: > 52.5 µM

O=P1(NCCCl)OCCCN1CCCl (stereo not drawn)
EC50: > 955 µM | IC50: > 955 µM

Cc1cc(=O)c2c(o1)-c1c(cc(O)c(O)c1C(=O)O)OC2
EC50: > 871 µM | IC50: 57.5 µM

CN(C)C(=S)/N=c1\ss/c(=N\C(=S)N(C)C)n1-c1ccccc1
EC50: > 200 µM | IC50: 191 µM

CC(C)(C)c1cc2c(O)c(c1)COCc1cc(C(C)(C)C)cc(c1O)COCc1cc(C(C)(C)C)cc(c1O)COC2
EC50: > 200 µM | IC50: 145 µM

COc1ccc2c(c1)CC1=C(O2)c2ccc(OC)cc2OC1
EC50: > 200 µM | IC50: 10.2 µM

COC(=O)N1C2CCCCC2=NN(c2ccccc2)N1C(=O)OC (stereo not drawn)
EC50: > 204 µM | IC50: > 204 µM

CCc1cccc(CC)c1NC(=O)CC1SC(N)=NC1=O (stereo not drawn)
EC50: > 427 µM | IC50: > 427 µM

Cc1n(Cc2ccccc2)c2c([n+]1C)C(=O)c1ccccc1C2=O
EC50: > 562 µM | IC50: 0.178 µM

NC(=S)C(=S)N/C=C/c1nc2ccccc2[nH]c1=O
EC50: > 200 µM | IC50: 7.94 µM
